Test results reported in patent publication US11440899B2, “Pyrimidine TBK/IKKe inhibitor compounds and uses thereof” (Merck Patent GmbH, priority 2017, dated 2022).
pIC50: −log10 of the molar value.

Legend:
TBK1 = TBK1 (Homo sapiens (Human), UniProt Q9UHD2); assay: TBK Biochemical Assay
Experimental: Example 106: TBK Biochemical Assay Test compounds were transferred into Labcyte polypropylene 384 well plates ([…]-25) and diluted to 3 mM using DMSO. 3 mM test compounds were dispensed using Labcyte ECHO dose response module into Greiner 784075 plates (columns 3-12 and 13-22, 10 point 1:4) so that high concentration was 30 uM final. 100 uM of a reference compound (1 uM final high concentration). Backfilling was performed if necessary so that all wells contain 1% DMSO final: add 75 nl DMSO/well into columns 1, 2 and 24 using Labcyte Echo. add 75 nl 1.0 mM staurosporine/well into column 23 using Labcyte Echo (10 uM final) add 4.5 ul enzyme/well using multidrop dispenser add 3 ul substrate/well using multidrop dispenser incubate at 25° C. in Heidolph incubator for 90 min. add 7.5 ul 2× stop buffer using multidrop dispenser read on labchip ez reader II using TBK1.job Raw data files were opened in the Caliper LabChip Reviewer program (Version 3.0.265.0 SP2) and peak assignments were adjusted to reflect “substrate first” with the software's post-run analysis options. A spline-fit baseline was applied using the software's analysis algorithm.

IKKe = IKKe (Homo sapiens (Human), UniProt Q14164); assay: IKKe Biochemical Assay
IKKe, sequence (Q14164 whole entry, species assumed): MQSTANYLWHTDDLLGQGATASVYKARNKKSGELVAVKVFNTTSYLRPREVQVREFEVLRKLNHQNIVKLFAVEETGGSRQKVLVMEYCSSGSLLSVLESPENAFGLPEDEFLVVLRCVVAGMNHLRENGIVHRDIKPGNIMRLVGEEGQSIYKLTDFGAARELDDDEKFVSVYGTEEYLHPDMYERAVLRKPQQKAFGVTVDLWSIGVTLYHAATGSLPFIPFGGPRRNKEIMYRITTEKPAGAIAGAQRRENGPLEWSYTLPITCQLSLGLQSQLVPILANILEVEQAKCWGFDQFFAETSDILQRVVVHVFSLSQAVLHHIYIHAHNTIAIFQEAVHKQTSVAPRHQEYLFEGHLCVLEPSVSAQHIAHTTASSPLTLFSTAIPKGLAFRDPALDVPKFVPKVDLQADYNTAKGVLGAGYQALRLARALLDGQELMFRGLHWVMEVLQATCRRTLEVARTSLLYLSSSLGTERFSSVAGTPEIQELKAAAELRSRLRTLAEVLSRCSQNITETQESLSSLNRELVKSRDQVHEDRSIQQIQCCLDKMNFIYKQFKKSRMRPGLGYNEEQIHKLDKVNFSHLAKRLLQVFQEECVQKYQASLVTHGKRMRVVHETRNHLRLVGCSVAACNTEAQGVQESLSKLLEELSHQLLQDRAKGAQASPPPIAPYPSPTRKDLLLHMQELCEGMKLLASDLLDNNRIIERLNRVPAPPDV
Experimental: IKKe Biochemical Assay Test compounds were transferred into Labcyte polypropylene 384 well plates ([…]-25) and diluted to 3 mM using DMSO. 3 mM test compounds were dispensed using Labcyte ECHO dose response module into Greiner 784075 plates (columns 3-12 and 13-22, 10 point 1:4) so that high concentration was 30 uM final. 100 uM of a reference compound (1 uM final high concentration). Backfilling was performed if necessary so that all wells contain 1% DMSO final: add 75 nl DMSO/well into columns 1, 2 and 24 using Labcyte Echo. add 75 nl 1.0 mM staurosporine/well into column 23 using Labcyte Echo (10 uM final) add 4.5 ul enzyme/well using multidrop dispenser add 3 ul substrate/well using multidrop dispenser incubate at 25° C. for 90 min. add 7.5 ul 2× stop buffer read on labchip ez reader II using IKKε. job Raw data files were opened in the Caliper LabChip Reviewer program (Version 3.0.265.0 SP2) and peak assignments were adjusted to reflect “substrate first” with the software's post-run analysis options. A spline-fit baseline was applied using the software's analysis algorithm.

TBK1, sequence (Q9UHD2 whole entry, species assumed): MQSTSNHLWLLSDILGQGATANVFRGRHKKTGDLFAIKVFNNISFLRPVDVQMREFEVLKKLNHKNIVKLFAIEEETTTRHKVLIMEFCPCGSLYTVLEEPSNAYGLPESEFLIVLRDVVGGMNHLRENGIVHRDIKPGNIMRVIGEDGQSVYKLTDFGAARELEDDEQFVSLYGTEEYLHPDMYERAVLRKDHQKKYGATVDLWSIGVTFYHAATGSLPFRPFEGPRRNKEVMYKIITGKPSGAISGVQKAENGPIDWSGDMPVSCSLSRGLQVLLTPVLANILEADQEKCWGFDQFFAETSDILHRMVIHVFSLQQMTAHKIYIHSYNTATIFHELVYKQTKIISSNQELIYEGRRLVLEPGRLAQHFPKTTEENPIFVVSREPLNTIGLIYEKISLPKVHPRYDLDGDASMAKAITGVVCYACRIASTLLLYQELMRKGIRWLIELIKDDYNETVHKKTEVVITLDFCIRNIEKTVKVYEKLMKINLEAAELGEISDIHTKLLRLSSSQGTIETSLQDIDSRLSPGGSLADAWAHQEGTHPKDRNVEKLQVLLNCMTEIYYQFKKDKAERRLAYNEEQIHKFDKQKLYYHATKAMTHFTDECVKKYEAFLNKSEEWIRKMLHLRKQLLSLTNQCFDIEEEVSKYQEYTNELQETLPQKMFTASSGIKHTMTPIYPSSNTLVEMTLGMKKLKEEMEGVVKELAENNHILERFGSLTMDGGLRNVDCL

Row | SMILES | pIC50 (TBK1) | pIC50 (IKKe)
1 | COc1nc(Nc2cc(-c3cc(C#N)c(OC4CCOCC4)cn3)ncn2)ccc1C(=O)N(C)C [Example 26, 6-([6-[4-cyano-5-(oxan-4-yloxy)pyridin-2-yl]pyrimidin-4-yl]amino)-2-methoxy-N,N-dimethylpyridine-3-carboxamide] | > 7.00 | > 7.00
2 | COc1nc(Nc2cc(-c3ccc(OC4CCOCC4)c(C#N)c3)ncn2)ccc1C1CCN(CC(F)(F)F)CC1 [Example 27, 5-[6-([6-methoxy-5-[1-(2,2,2-trifluoroethyl)piperidin-4-yl]pyridin-2-yl]amino)pyrimidin-4-yl]-2-(oxan-4-yloxy)benzonitrile] | 6.00 to 7.00 | 6.00 to 7.00
3 | COc1nc(Nc2cc(-c3ccc(OC4CCOCC4)c(C#N)c3)ncn2)ccc1C1CCN(CC(F)F)CC1 [Example 28, 5-[6-([5-[1-(2,2-difluoroethyl)piperidin-4-yl]-6-methoxypyridin-2-yl]amino)pyrimidin-4-yl]-2-(oxan-4-yloxy)benzonitrile] | > 7.00 | > 7.00
4 | CN1CCN(c2ccc(Nc3cc(-c4ccc(OC5CCOCC5)c(C#N)c4)ncn3)nc2)CC1 [Example 29, 5-(6-[[5-(4-methylpiperazin-1-yl)pyridin-2-yl]amino]pyrimidin-4-yl)-2-(oxan-4-yloxy)benzonitrile] | > 7.00 | > 7.00
5 | COc1cc(Nc2cc(-c3ccc(OC4CCOCC4)c(C#N)c3)ncn2)cnc1N1CCN(C)CC1 [Example 34, 5-(6-[[5-methoxy-6-(4-methylpiperazin-1-yl)pyridin-3-yl]amino]pyrimidin-4-yl)-2-(oxan-4-yloxy)benzonitrile] | 6.00 to 7.00 | 6.00 to 7.00
6 | COc1cc(Nc2cc(-c3ccc(OC4CCOCC4)c(C#N)c3)ncn2)cnc1C1CCN(C)CC1 [Example 35, 5-(6-[[5-methoxy-6-(1-methylpiperidin-4-yl)pyridin-3-yl]amino]pyrimidin-4-yl)-2-(oxan-4-yloxy)benzonitrile] | 6.00 to 7.00 | 6.00 to 7.00
7 | COc1nc(Nc2cc(-c3ccc(OC4CN(C)C4)c(C#N)c3)ncn2)ccc1C(=O)N(C)C [Example 37, 6-[(6-[3-cyano-4-[(1-methylazetidin-3-yl)oxy]phenyl]pyrimidin-4-yl)amino]-2-methoxy-N,N-dimethylpyridine-3-carboxamide] | 6.00 to 7.00 | 6.00 to 7.00
8 | COc1nc(Nc2cc(-c3ccc(OC4CCN(C)CC4)c(C#N)c3)ncn2)ccc1C(=O)N(C)C [Example 41, 6-[(6-[3-cyano-4-[(1-methylpiperidin-4-yl)oxy]phenyl]pyrimidin-4-yl)amino]-2-methoxy-N,N-dimethylpyridine-3-carboxamide] | 5.30 to 6.00 | 5.30 to 6.00
9 | COc1nc(Nc2cc(-c3ccc(OC4CCN(C(=O)CO)CC4)c(C#N)c3)ncn2)ccc1C(=O)N(C)C [Example 42, 6-[[6-(3-cyano-4-[[1-(2-hydroxyacetyl)piperidin-4-yl]oxy]phenyl)pyrimidin-4-yl]amino]-2-methoxy-N,N-dimethylpyridine-3-carboxamide] | > 7.00 | > 7.00
10 | COc1nc(Nc2cc(-c3ccc(OC4CCN(C(=O)c5cnco5)CC4)c(C#N)c3)ncn2)ccc1C(=O)N(C)C [Example 43, 6-([6-[3-cyano-4-([1-[(1,3-oxazol-5-yl)carbonyl]piperidin-4-yl]oxy)phenyl]pyrimidin-4-yl]amino)-2-methoxy-N,N-dimethylpyridine-3-carboxamide] | > 7.00 | > 7.00

More lines, now with the values ahead:

Row | pIC50 (TBK1) | pIC50 (IKKe) | SMILES
11 | 5.30 to 6.00 | 5.30 to 6.00 | COc1nc(Nc2cc(-c3ccc(OC4CCOCC4)c(C#N)n3)ncn2)ccc1C1CCN(C)CC1 [Example 25, 6-(6-[[6-methoxy-5-(1-methylpiperidin-4-yl)pyridin-2-yl]amino]pyrimidin-4-yl)-3-(oxan-4-yloxy)pyridine-2-carbonitrile]
12 | > 7.00 | > 7.00 | CN(C)C(=O)c1ccc(Nc2cc(-c3ccc(OC4CCOCC4)c(C#N)c3)ncn2)nc1 [Example 30, 6-([6-[3-cyano-4-(oxan-4-yloxy)phenyl]pyrimidin-4-yl]amino)-N,N-dimethylpyridine-3-carboxamide]
13 | > 7.00 | > 7.00 | COc1cc(Nc2cc(-c3ccc(OC4CCOCC4)c(C#N)c3)ncn2)ncc1C(=O)N(C)C [Example 31, 6-([6-[3-cyano-4-(oxan-4-yloxy)phenyl]pyrimidin-4-yl]amino)-4-methoxy-N,N-dimethylpyridine-3-carboxamide]
14 | 5.30 to 6.00 | 5.30 to 6.00 | COc1cc(Nc2cc(-c3ccc(OC4CCOCC4)c(C#N)c3)ncn2)cnc1C(=O)N(C)C [Example 32, 5-([6-[3-cyano-4-(oxan-4-yloxy)phenyl]pyrimidin-4-yl]amino)-3-methoxy-N,N-dimethylpyridine-2-carboxamide]
15 | > 7.00 | > 7.00 | COc1cc(Nc2cc(-c3ccc(OC4CCOCC4)c(C#N)c3)ncn2)ncc1N1CCN(C)CC1 [Example 33, 5-(6-[[4-methoxy-5-(4-methylpiperazin-1-yl)pyridin-2-yl]amino]pyrimidin-4-yl)-2-(oxan-4-yloxy)benzonitrile]
16 | > 7.00 | > 7.00 | COc1cc(Nc2cc(-c3ccc(OC4CCOCC4)c(C#N)c3)ncn2)ncc1C1CCN(C)CC1 [Example 36, 5-(6-[[4-methoxy-5-(1-methylpiperidin-4-yl)pyridin-2-yl]amino]pyrimidin-4-yl)-2-(oxan-4-yloxy)benzonitrile]
17 | > 7.00 | > 7.00 | COc1nc(Nc2cc(-c3ccc(OC4CN(C)C4)c(C#N)c3)ncn2)ccc1N1CCN(C)CC1 [Example 38, 5-(6-[[6-methoxy-5-(4-methylpiperazin-1-yl)pyridin-2-yl]amino]pyrimidin-4-yl)-2-[(1-methylazetidin-3-yl)oxy]benzonitrile]
18 | 6.00 to 7.00 | 6.00 to 7.00 | COc1nc(Nc2cc(-c3ccc(OC4CCN(C)C4)c(C#N)c3)ncn2)ccc1C(=O)N(C)C (stereo not drawn) [Example 39, 6-[(6-[3-cyano-4-[(1-methylpyrrolidin-3-yl)oxy]phenyl]pyrimidin-4-yl)amino]-2-methoxy-N,N-dimethylpyridine-3-carboxamide]
19 | 6.00 to 7.00 | 6.00 to 7.00 | CN1CCN(c2ccc(Nc3cc(-c4ccc(OC5CCN(C)C5)c(C#N)c4)ncn3)nc2)CC1 (stereo not drawn) [Example 40, 5-(6-[[5-(4-methylpiperazin-1-yl)pyridin-2-yl]amino]pyrimidin-4-yl)-2-[(1-methylpyrrolidin-3-yl)oxy]benzonitrile]
20 | > 7.00 | > 7.00 | COc1nc(Nc2cc(-c3ccc(OC4CCN(C(=O)c5cocn5)CC4)c(C#N)c3)ncn2)ccc1C(=O)N(C)C [Example 44, 6-([6-[3-cyano-4-([1-[(1,3-oxazol-4-yl)carbonyl]piperidin-4-yl]oxy)phenyl]pyrimidin-4-yl]amino)-2-methoxy-N,N-dimethylpyridine-3-carboxamide]
21 | > 7.00 | > 7.00 | COc1nc(Nc2cc(-c3ccc(OC4CCN(C(=O)c5n[nH]c(C)n5)CC4)c(C#N)c3)ncn2)ccc1C(=O)N(C)C [Example 45, 6-([6-[3-cyano-4-([1-[(5-methyl-1H-1,2,4-triazol-3-yl)carbonyl]piperidin-4-yl]oxy)phenyl]pyrimidin-4-yl]amino)-2-methoxy-N,N-dimethylpyridine-3-carboxamide]
